Data: PubChem BioAssay (NCI)
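GI50 = concentration required for 50% inhibition of growth. TGI is the concentration that stops growth completely.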

How the values were obtained:
Assay in all cases: DTP human tumour cell line panel, 384-well format
786-0 renal = system: 786-0 renal
A498 renal = system: A498 renal
A549 NSCLC = system: A549 NSCLC
BT-549 breast = system: BT-549 breast
CAKI-1 renal = system: CAKI-1 renal
CCRF-CEM leukemia = system: CCRF-CEM leukemia
COLO 205 colon = system: COLO 205 colon
DU-145 prostate = system: DU-145 prostate
EKVX NSCLC = system: EKVX NSCLC
HCC-2998 colon = system: HCC-2998 colon
HCT-116 colon = system: HCT-116 colon
HCT-15 colon = system: HCT-15 colon
HL-60(TB) leukemia = system: HL-60(TB) leukemia
HOP-62 NSCLC = system: HOP-62 NSCLC
HOP-92 NSCLC = system: HOP-92 NSCLC
HS 578T breast = system: HS 578T breast
IGROV1 ovarian = system: IGROV1 ovarian
K-562 leukemia = system: K-562 leukemia
MALME-3M melanoma = system: MALME-3M melanoma
MDA-MB-231 breast = system: MDA-MB-231 breast
MDA-MB-468 breast = system: MDA-MB-468 breast
MOLT-4 leukemia = system: MOLT-4 leukemia
NCI-H23 lung = system: NCI-H23 lung
NCI-H322M lung = system: NCI-H322M lung
NCI-H460 NSCLC = system: NCI-H460 NSCLC
NCI/ADR-RES ovarian = system: NCI/ADR-RES ovarian
OVCAR-3 ovarian = system: OVCAR-3 ovarian
OVCAR-4 ovarian = system: OVCAR-4 ovarian
OVCAR-5 ovarian = system: OVCAR-5 ovarian
OVCAR-8 ovarian = system: OVCAR-8 ovarian
RXF 393 renal = system: RXF 393 renal
SF-268 CNS = system: SF-268 CNS
SF-295 CNS = system: SF-295 CNS
SF-539 CNS = system: SF-539 CNS
SK-MEL-28 melanoma = system: SK-MEL-28 melanoma
SK-OV-3 ovarian = system: SK-OV-3 ovarian
SN12C renal = system: SN12C renal
SNB-19 CNS = system: SNB-19 CNS
SNB-75 CNS = system: SNB-75 CNS
SW-620 colon = system: SW-620 colon
T-47D breast = system: T-47D breast
TK-10 renal = system: TK-10 renal
U251 glioblastoma = system: U251 glioblastoma
UACC-257 melanoma = system: UACC-257 melanoma
UO-31 renal = system: UO-31 renal
ACHN renal = system: ACHN renal
HT29 colon = system: HT29 colon
KM12 colon = system: KM12 colon
M14 melanoma = system: M14 melanoma
MCF7 breast = system: MCF7 breast
MDA-MB-435 melanoma = system: MDA-MB-435 melanoma
NCI-H226 lung = system: NCI-H226 lung
NCI-H522 lung = system: NCI-H522 lung
PC-3 prostate = system: PC-3 prostate
RPMI-8226 leukemia = system: RPMI-8226 leukemia
SK-MEL-2 melanoma = system: SK-MEL-2 melanoma
SK-MEL-5 melanoma = system: SK-MEL-5 melanoma
SR leukemia = system: SR leukemia
UACC-62 melanoma = system: UACC-62 melanoma

O=C1CCC(N2Cc3cc(CNC(=O)C(F)(F)c4ccc(Cl)cc4)ccc3C2=O)C(=O)N1 (stereo not given)
GI50 ([…]-0 renal): > 100 µM | TGI (786-0 renal): > 100 µM | GI50 (A498 renal): > 100 µM | TGI (A498 renal): > 100 µM | GI50 (A549 NSCLC): > 100 µM | TGI (A549 NSCLC): > 100 µM | GI50 (BT-549 breast): 0.0613 µM | TGI (BT-549 breast): 32.2 µM | GI50 (CAKI-1 renal): > 100 µM | TGI (CAKI-1 renal): > 100 µM | GI50 (CCRF-CEM leukemia): < 0.01 µM | TGI (CCRF-CEM leukemia): 0.015 µM | GI50 (COLO 205 colon): 0.142 µM | TGI (COLO 205 colon): > 100 µM | GI50 (DU-145 prostate): > 100 µM | TGI (DU-145 prostate): > 100 µM | GI50 (EKVX NSCLC): > 100 µM | TGI (EKVX NSCLC): > 100 µM | GI50 (HCC-2998 colon): 0.0908 µM | TGI (HCC-2998 colon): > 100 µM | GI50 (HCT-116 colon): > 100 µM | TGI (HCT-116 colon): > 100 µM | GI50 (HCT-15 colon): 0.744 µM | TGI (HCT-15 colon): > 100 µM | GI50 (HL-60(TB) leukemia): < 0.01 µM | TGI (HL-60(TB) leukemia): 0.0106 µM | GI50 (HOP-62 NSCLC): 0.835 µM | TGI (HOP-62 NSCLC): > 100 µM | GI50 (HOP-92 NSCLC): 0.21 µM | TGI (HOP-92 NSCLC): > 100 µM | GI50 (HS 578T breast): 0.0781 µM | TGI (HS 578T breast): > 100 µM | GI50 (IGROV1 ovarian): 0.568 µM | TGI (IGROV1 ovarian): > 100 µM | GI50 (K-562 leukemia): 68.4 µM | TGI (K-562 leukemia): > 100 µM | GI50 (MALME-3M melanoma): 0.101 µM | TGI (MALME-3M melanoma): > 100 µM | GI50 (MDA-MB-231 breast): 0.087 µM | TGI (MDA-MB-231 breast): > 100 µM | GI50 (MDA-MB-468 breast): < 0.01 µM | TGI (MDA-MB-468 breast): 0.0301 µM | GI50 (MOLT-4 leukemia): < 0.01 µM | TGI (MOLT-4 leukemia): 0.0133 µM | GI50 (NCI-H23 lung): > 100 µM | TGI (NCI-H23 lung): > 100 µM | GI50 (NCI-H322M lung): > 100 µM | TGI (NCI-H322M lung): > 100 µM | GI50 (NCI-H460 NSCLC): > 100 µM | TGI (NCI-H460 NSCLC): > 100 µM | GI50 (NCI/ADR-RES ovarian): 24.7 µM | TGI (NCI/ADR-RES ovarian): > 100 µM | GI50 (OVCAR-3 ovarian): > 100 µM | TGI (OVCAR-3 ovarian): > 100 µM | GI50 (OVCAR-4 ovarian): > 100 µM | TGI (OVCAR-4 ovarian): > 100 µM | GI50 (OVCAR-5 ovarian): > 100 µM | TGI (OVCAR-5 ovarian): > 100 µM | GI50 (OVCAR-8 ovarian): 0.059 µM | TGI (OVCAR-8 ovarian): > 100 µM | GI50 (RXF 393 renal): > 100 µM | TGI (RXF 393 renal): > 100 µM | GI50 (SF-268 CNS): > 100 µM | TGI (SF-268 CNS): > 100 µM | GI50 (SF-295 CNS): > 100 µM | TGI (SF-295 CNS): > 100 µM | GI50 (SF-539 CNS): > 100 µM | TGI (SF-539 CNS): > 100 µM | GI50 (SK-MEL-28 melanoma): > 100 µM | TGI (SK-MEL-28 melanoma): > 100 µM | GI50 (SK-OV-3 ovarian): > 100 µM | TGI (SK-OV-3 ovarian): > 100 µM | GI50 (SN12C renal): > 100 µM | TGI (SN12C renal): > 100 µM | GI50 (SNB-19 CNS): > 100 µM | TGI (SNB-19 CNS): > 100 µM | GI50 (SNB-75 CNS): 0.463 µM | TGI (SNB-75 CNS): > 100 µM | GI50 (SW-620 colon): 0.0885 µM | TGI (SW-620 colon): > 100 µM | GI50 (T-47D breast): 0.0216 µM | TGI (T-47D breast): 17.8 µM | GI50 (TK-10 renal): > 100 µM | TGI (TK-10 renal): > 100 µM | GI50 (U251 glioblastoma): > 100 µM | TGI (U251 glioblastoma): > 100 µM | GI50 (UACC-257 melanoma): > 100 µM | TGI (UACC-257 melanoma): > 100 µM | GI50 (UO-31 renal): > 100 µM | TGI (UO-31 renal): > 100 µM

Nc1nc(OCc2ccccc2)c2[nH]cnc2n1
GI50 ([…]-0 renal): 35.9 µM | GI50 (A498 renal): 19.6 µM | TGI (A498 renal): 91.9 µM | GI50 (A549 NSCLC): 64.5 µM | GI50 (ACHN renal): 46.1 µM | GI50 (BT-549 breast): 26.9 µM | TGI (BT-549 breast): 78.5 µM | GI50 (CAKI-1 renal): 20.8 µM | TGI (CAKI-1 renal): 55.9 µM | GI50 (CCRF-CEM leukemia): 28.4 µM | TGI (CCRF-CEM leukemia): 88.9 µM | GI50 (COLO 205 colon): 65.7 µM | GI50 (DU-145 prostate): 52.3 µM | GI50 (EKVX NSCLC): 43.3 µM | GI50 (HCC-2998 colon): 30.8 µM | GI50 (HCT-15 colon): 28.4 µM | GI50 (HL-60(TB) leukemia): 30.2 µM | TGI (HL-60(TB) leukemia): 78.3 µM | GI50 (HOP-62 NSCLC): 36.7 µM | GI50 (HOP-92 NSCLC): 36.8 µM | GI50 (HS 578T breast): 16.6 µM | TGI (HS 578T breast): 43.7 µM | GI50 (HT29 colon): 53.3 µM | GI50 (IGROV1 ovarian): 25.7 µM | TGI (IGROV1 ovarian): 90.5 µM | GI50 (KM12 colon): 66.1 µM | GI50 (M14 melanoma): 30.4 µM | TGI (M14 melanoma): 95.8 µM | GI50 (MALME-3M melanoma): 30.9 µM | TGI (MALME-3M melanoma): 79.1 µM | GI50 (MCF7 breast): 56.2 µM | GI50 (MDA-MB-231 breast): 34.6 µM | GI50 (MDA-MB-435 melanoma): 52.4 µM | GI50 (MDA-MB-468 breast): 25 µM | TGI (MDA-MB-468 breast): 61 µM | GI50 (MOLT-4 leukemia): 28.9 µM | GI50 (NCI-H226 lung): 29.3 µM | TGI (NCI-H226 lung): 80.7 µM | GI50 (NCI-H23 lung): 31.8 µM | GI50 (NCI-H322M lung): 57.5 µM | GI50 (NCI-H460 NSCLC): 37.8 µM | GI50 (NCI-H522 lung): 20.8 µM | TGI (NCI-H522 lung): 60.7 µM | GI50 (OVCAR-3 ovarian): 69.1 µM | GI50 (OVCAR-4 ovarian): 64.4 µM | GI50 (OVCAR-5 ovarian): 70.4 µM | GI50 (OVCAR-8 ovarian): 66.4 µM | GI50 (PC-3 prostate): 55.2 µM | GI50 (RPMI-8226 leukemia): 18.5 µM | TGI (RPMI-8226 leukemia): 37.8 µM | GI50 (RXF 393 renal): 32.5 µM | TGI (RXF 393 renal): 88.7 µM | GI50 (SF-268 CNS): 66.3 µM | GI50 (SF-539 CNS): 34.7 µM | GI50 (SK-MEL-2 melanoma): 37.2 µM | TGI (SK-MEL-2 melanoma): 65.8 µM | GI50 (SK-MEL-28 melanoma): 66.9 µM | GI50 (SK-MEL-5 melanoma): 27.9 µM | GI50 (SK-OV-3 ovarian): 23.2 µM | TGI (SK-OV-3 ovarian): 50.1 µM | GI50 (SNB-75 CNS): 19.6 µM | TGI (SNB-75 CNS): 76.5 µM | GI50 (SR leukemia): 30.9 µM | TGI (SR leukemia): 78.4 µM | GI50 (T-47D breast): 34.5 µM | GI50 (TK-10 renal): 15.8 µM | TGI (TK-10 renal): 60.7 µM | GI50 (U251 glioblastoma): 38.3 µM | GI50 (UACC-257 melanoma): 61.6 µM | GI50 (UACC-62 melanoma): 31.4 µM
